Four molecules from ChEMBL document CHEMBL3352030, “Evaluation of the cyclopentane-1,2-dione as a potential bio-isostere of the carboxylic acid functional group” (Bioorg Med Chem Lett, 2014) can be followed below.

Each structure is given as a SMILES string.

A short description of series [1]: Dissociation constant, pKa of the compound by potentiometric titration.
The target of another series is T1, Thromboxane A2 receptor (Homo sapiens, UniProt P21731).
T1 sequence (P21731 whole entry): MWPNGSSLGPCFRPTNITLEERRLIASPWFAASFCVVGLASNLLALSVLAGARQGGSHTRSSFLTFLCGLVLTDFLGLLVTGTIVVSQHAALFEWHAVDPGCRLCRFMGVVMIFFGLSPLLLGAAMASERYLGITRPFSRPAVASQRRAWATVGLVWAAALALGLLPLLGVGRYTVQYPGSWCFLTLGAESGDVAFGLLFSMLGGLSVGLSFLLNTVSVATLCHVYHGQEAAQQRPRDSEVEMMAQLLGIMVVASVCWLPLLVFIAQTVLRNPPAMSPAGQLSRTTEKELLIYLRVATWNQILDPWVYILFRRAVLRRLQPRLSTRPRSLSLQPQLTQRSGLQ
The experiment in a line: Inhibition of human TP receptor expressed in QBI-HEK 293A cells assessed as IP3 metabolite level after 1 hr by HTRF assay. In kind it is functional, cell-based.

The test system of another series is Plasma. The experiment in a line: Stability in CD-1 mouse plasma at 1 uM after 1 hr by LC/MS/MS analysis. In kind it is ADME, cell-free.

In general, pKa refers to the negative logarithm of the acid dissociation constant. Lower therefore signals a stronger acid or weaker base. Take `O=C1CCC(Cc2ccc(Br)cc2)=C1O`: in series [1], the pKa worked out at 8.6.

One may read the IC50 as the concentration at which inhibition is half-maximal. For the molecule `O=C1CCC(Cc2cccc(CCNS(=O)(=O)c3ccc(Cl)cc3)c2)=C1O`, the IC50 at Thromboxane A2 receptor was found to be 54 nM. For the same molecule, in the series with Plasma, the Stability entry is on record as “Stable”.

Consider `O=C(O)CCc1cccc2c1CCC(NS(=O)(=O)c1ccc(Cl)cc1)C2` (stereo not given), for which the IC50 at Thromboxane A2 receptor was 2.6 nM.

For `O=C1CC(c2cccc(CCNS(=O)(=O)c3ccc(Cl)cc3)c2)C=C1O` (stereo not given), the IC50 on Thromboxane A2 receptor was 1140 nM.
